Test: Fecal excretion study in rats after oral NS, SF or CNS (LC–MS/MS)
Assay type: in vivo
Conditions: rat feces
Method: The animal room was set at constant temperature of 20 ± 2 °C with humidity of 50 ± 20% and 12/12 h light/dark cycle.
Eighteen male rats were fasted for 12 h before starting the experiment. The rats were divided into three groups at random (n = 6) and received NS (60 mg/kg), SF (50 mg/kg), and NS (60 mg/kg) + SF (50 mg/kg), respectively, by oral gavage. The rats were placed in separate metabolic cages. The urine samples were collected at 0–2, 2–4, 4–6, 6–8, 8–12, 12–24, 24–36, 36–48, 48–72, 72–96, and 96–120 h. The feces samples were collected at 0–4, 4–8, 8–12, 12–24, 24–36, 36–48, 48–72, 72–96, and 96–120 h. The urine volume was recorded and the dry feces were measured for each collection period. Samples were stored at −80 °C until analysis.
Feces samples were homogenized in ultrapure water (1 g/15 mL), soaked for 30 min, ultrasonically extracted for 30 min and centrifuged at 9000 rpm for 8 min. An aliquot of 200 μL feces water extraction solution was mixed with 10 μL of IS and then extracted three times with water-saturated n-BuOH (150 μL). The upper organic phase was combined and evaporated to dryness using a ZLS-2 vacuum centrifugal concentrator. The residue was treated as the urine sample and a 1-μL aliquot was injected for LC–MS analysis.
Ultra fast liquid chromatography (UFLC) analysis was performed using a Shimadzu UFLC system (DGU-20A3R Degasser; LC-20AD pump; SIL-20AXR Autosampler; CTO-20AC Column Oven) (Nakagyo-Ku, Koyoto, Japan). […] Because of the different endogenous substances in the urine and feces samples, different elution gradients were used to alleviate the matrix effects for the analytes.
The mass spectrometric detection was performed on an ABSciex 4500 Qtrap mass spectrometer (ABSciex, Foster City, CA, USA) equipped with a negative electrospray ionization (ESI) interface using multiple reaction monitoring (MRM). The MS parameters were optimized under the selected ion monitoring conditions as follows: curtain gas, 35 psi; ionspray voltage, 4500 V; turbo gas temperature, 450 °C; GS1, 45 psi; GS2, 45 psi. All data were acquired and analyzed by Analyst software (Versions 1.6.2) from ABSciex.
The accumulative excretion percentage was calculated for each analyte as follows. Excretion at time (t) = [concentration of the analyte (ng/mL) at t] × total urine (or feces) volume (mL) at t. The cumulative excretion up to time t (mg) was expressed as a percent (%) cumulative excretion by dividing by the total amount of the analyte ingested (mg): % Cumulative Excretion = 100 × (Σt excretiont) total ingested.

concentration at 4 h (male, Sprague Dawley, oral CNS 110 mg/kg, 4 h): 87 ± 124 ng/mL | concentration at 8 h (male, Sprague Dawley, oral CNS 110 mg/kg, 8 h): 267 ± 204 ng/mL | concentration at 12 h (male, Sprague Dawley, oral CNS 110 mg/kg, 12 h): 330 ± 26 ng/mL | concentration at 24 h (male, Sprague Dawley, oral CNS 110 mg/kg, 24 h): 366 ± 20 ng/mL | concentration at 36 h (male, Sprague Dawley, oral CNS 110 mg/kg, 36 h): 367 ± 26 ng/mL | concentration at 48 h (male, Sprague Dawley, oral CNS 110 mg/kg, 48 h): 354 ± 28 ng/mL | concentration at 72 h (male, Sprague Dawley, oral CNS 110 mg/kg, 72 h): 168 ± 69 ng/mL | concentration at 96 h (male, Sprague Dawley, oral CNS 110 mg/kg, 96 h): 44 ± 43 ng/mL | concentration at 4 h (male, Sprague Dawley, oral NS 60 mg/kg, 4 h): 323 ± 43 ng/mL | concentration at 8 h (male, Sprague Dawley, oral NS 60 mg/kg, 8 h): 455 ± 18 ng/mL | concentration at 12 h (male, Sprague Dawley, oral NS 60 mg/kg, 12 h): 401 ± 27 ng/mL | concentration at 24 h (male, Sprague Dawley, oral NS 60 mg/kg, 24 h): 430 ± 15 ng/mL | concentration at 36 h (male, Sprague Dawley, oral NS 60 mg/kg, 36 h): 421 ± 18 ng/mL | concentration at 48 h (male, Sprague Dawley, oral NS 60 mg/kg, 48 h): 561 ± 26 ng/mL | concentration at 72 h (male, Sprague Dawley, oral NS 60 mg/kg, 72 h): 81 ± 6 ng/mL | concentration at 96 h (male, Sprague Dawley, oral NS 60 mg/kg, 96 h): 18 ± 1 ng/mL | concentration at 120 h (male, Sprague Dawley, oral NS 60 mg/kg, 120 h): 17 ± 2 ng/mL | Accumulative excretion amount (oral CNS 110 mg/kg, 4 h): 1.098 ± 1.616 µg | Accumulative excretion percentage (oral CNS 110 mg/kg, 4 h): 0.234±0.345% | Excretion amount (oral CNS 110 mg/kg, 4 h): 1.098 ± 1.616 µg | Accumulative excretion amount (oral CNS 110 mg/kg, 8 h): 4.802 ± 4.393 µg | Accumulative excretion percentage (oral CNS 110 mg/kg, 8 h): 1.022±0.936% | Excretion amount (oral CNS 110 mg/kg, 8 h): 3.705 ± 2.813 µg | Accumulative excretion amount (oral CNS 110 mg/kg, 12 h): 9.675 ± 4.726 µg | Accumulative excretion percentage (oral CNS 110 mg/kg, 12 h): 2.051±1.001% | Excretion amount (oral CNS 110 mg/kg, 12 h): 4.873 ± 1.226 µg | Accumulative excretion amount (oral CNS 110 mg/kg, 24 h): 15.135 ± 5.426 µg | Accumulative excretion percentage (oral CNS 110 mg/kg, 24 h): 3.203±1.152% | Excretion amount (oral CNS 110 mg/kg, 24 h): 5.459 ± 1.584 µg | Accumulative excretion amount (oral CNS 110 mg/kg, 36 h): 20.570 ± 6.347 µg | Accumulative excretion percentage (oral CNS 110 mg/kg, 36 h): 4.364±1.343% | Excretion amount (oral CNS 110 mg/kg, 36 h): 5.435 ± 1.413 µg | Accumulative excretion amount (oral CNS 110 mg/kg, 48 h): 25.852 ± 7.369 µg | Accumulative excretion percentage (oral CNS 110 mg/kg, 48 h): 5.469±1.568% | Excretion amount (oral CNS 110 mg/kg, 48 h): 5.282 ± 1.513 µg | Accumulative excretion percentage (oral CNS 110 mg/kg, 72 h): 6.027±1.613% | Excretion amount (oral CNS 110 mg/kg, 72 h): 2.615 ± 1.424 µg | Accumulative excretion amount (oral CNS 110 mg/kg, 96 h): 29.184 ± 7.675 µg | Accumulative excretion percentage (oral CNS 110 mg/kg, 96 h): 6.182±1.623% | Excretion amount (oral CNS 110 mg/kg, 96 h): 0.717 ± 0.713 µg | Accumulative excretion amount (oral CNS 110 mg/kg, 120 h): 29.184 ± 7.675 µg | Accumulative excretion percentage (oral CNS 110 mg/kg, 120 h): 6.182±1.623% | Accumulative excretion amount (oral NS 60 mg/kg, 4 h): 4.585 ± 1.408 µg | Accumulative excretion percentage (oral NS 60 mg/kg, 4 h): 0.852±0.261% | Excretion amount (oral NS 60 mg/kg, 4 h): 4.585 ± 1.408 µg | Accumulative excretion amount (oral NS 60 mg/kg, 8 h): 11.148 ± 3.459 µg | Accumulative excretion percentage (oral NS 60 mg/kg, 8 h): 2.063±0.644% | Excretion amount (oral NS 60 mg/kg, 8 h): 6.563 ± 2.122 µg | Accumulative excretion amount (oral NS 60 mg/kg, 12 h): 16.907 ± 5.229 µg | Accumulative excretion percentage (oral NS 60 mg/kg, 12 h): 3.122±0.971% | Excretion amount (oral NS 60 mg/kg, 12 h): 5.759 ± 1.787 µg | Accumulative excretion amount (oral NS 60 mg/kg, 24 h): 23.057 ± 7.062 µg | Accumulative excretion percentage (oral NS 60 mg/kg, 24 h): 4.266±1.305% | Excretion amount (oral NS 60 mg/kg, 24 h): 6.150 ± 1.850 µg | Accumulative excretion amount (oral NS 60 mg/kg, 36 h): 29.162 ± 9.141 µg | Accumulative excretion percentage (oral NS 60 mg/kg, 36 h): 5.397± 1.699% | Excretion amount (oral NS 60 mg/kg, 36 h): 6.105 ± 2.098 µg | Accumulative excretion amount (oral NS 60 mg/kg, 48 h): 37.268 ± 11.835 µg | Accumulative excretion percentage (oral NS 60 mg/kg, 48 h): 6.892±2.193% | Excretion amount (oral NS 60 mg/kg, 48 h): 8.106 ± 2.700 µg | Accumulative excretion amount (oral NS 60 mg/kg, 72 h): 38.423 ± 12.180 µg | Accumulative excretion percentage (oral NS 60 mg/kg, 72 h): 7.103±2.254% | Excretion amount (oral NS 60 mg/kg, 72 h): 1.155 ± 0.306 µg | Accumulative excretion amount (oral NS 60 mg/kg, 96 h): 38.685 ± 12.265 µg | Accumulative excretion percentage (oral NS 60 mg/kg, 96 h): 7.149±2.268% | Excretion amount (oral NS 60 mg/kg, 96 h): 0.262 ± 0.086 µg | Accumulative excretion amount (oral NS 60 mg/kg, 120 h): 38.937 ± 12.350 µg | Accumulative excretion percentage (oral NS 60 mg/kg, 120 h): 7.187±2.278% | Excretion amount (oral NS 60 mg/kg, 120 h): 0.252 ± 0.091 µg
SMILES: CC(C)=CCC[C@](C)(O[C@@H]1O[C@H](CO)[C@@H](O)[C@H](O)[C@H]1O)[C@H]1CC[C@]2(C)[C@@H]1[C@H](O)C[C@@H]1[C@@]3(C)CC[C@H](O)C(C)(C)[C@@H]3[C@@H](O[C@@H]3O[C@H](CO)[C@@H](O)[C@H](O)[C@H]3O[C@@H]3O[C@@H](C)[C@H](O)[C@@H](O)[C@H]3O)C[C@]12C [ginsenoside Re]
